# Assay results reported in patent publication US6617337B1, “Use of nitroxides for the treatment of essential hypertension” (Georgetown University, priority 1997, dated 2003).
# Values joined by “and” are separate entries in the source; they are usually repeats but may differ in a detail not shown here. Identical values can stand only once.
# Tested on: SHR and WKY rats
# Assay: Two weeks of oral Tempol in the drinking water: MAP, HR, renal hemodynamics, excretion, 8-ISO
# Type: in vivo, rat
# Conditions: Tempol 1 mM in drinking water
# Method: Thereafter, WKY and SHR were anesthetized with thiobutabarbital (100 mg/kg, i.p., Inactin, Research Biochemicals International) and maintained at 37° C. on a servo-controlled heated rodent operating table. A tracheostomy was performed with polyethylene PE-240 tubing and the left jugular vein and carotid artery were cannulated with PE-50 tubing. A 1% albumin solution in 0.154 M NaCl was infused at 2 ml/h, i.v. to maintain a euvolemic state. A midline incision was made and the left renal artery was isolated. A blood flow probe was placed around the renal artery and connected to a transit-time blood flowmeter (IRB, Transonic Systems, Inc.). We have previously shown that this method of measuring real-time changes in renal blood flow (RBF) is valid in the rat. Mean arterial pressure (MAP) and heart rate (HR) were continuously recorded from the carotid artery using a Statham pressure transducer (model P23, Gould Instruments) and MACLab data acquisition software. Glomerular filtration rate (GFR) was determined from the clearance of [^3H]-inulin. Following surgery and a 60 min equilibration period, MAP, HR, GFR, and RBF were measured over 30 minutes and the data was averaged.
smiles,measurement,setting,value
"CC1(C)CC(O)CC(C)(C)N1[O] [Tempol, 4-hydroxy-2,2,6,6-tetramethyl-1-piperidinyloxy]",RBF,"SHR, 2 weeks",5.6 ± 0.5 mL/min
same,RVR,"SHR, 2 weeks",26.4 ± 2.6 mm Hg/ml/min
same,UNaV,"SHR, 2 weeks",2.1 ± 0.2 mmol/24 hr
same,UV,"SHR, 2 weeks",15.2 ± 1.7 ml/24 hr
same,"Decrease in RVR (tendency, not significant)","SHR, two weeks",16%
same,GFR,"SHR, two weeks",1.9 ± 0.3 mL/min and 2.0 ± 0.2 mL/min
same,Heart rate,"SHR, two weeks",414±9 bts/min
same,Increase in GFR,"SHR, two weeks",17%
same,MAP,"SHR, two weeks",134±6 mm Hg
same,UV8-ISO (8-iso-prostaglandin F2α excretion),"SHR, two weeks",6.0±0.7 ng/24 hr
same,Decrease in MAP compared to normal SHR,"SHR, two weeks, p<0.05",18%
same,Decrease in UV8-ISO (8-iso-prostaglandin F2α excretion),"SHR, two weeks, p<0.05",39%
same,Body weight gain,"2 weeks, WKY and SHR pooled",66±3 g/14 days
same,Food intake,"2 weeks, WKY and SHR pooled",24 ± 1 g/day
same,Water intake,"2 weeks, WKY and SHR pooled, p<0.05 vs control",43 ± 3 mL/day
same,GFR,"WKY, 2 weeks",2.5 ± 0.4 mL/min
same,RBF,"WKY, 2 weeks",8.8 ± 0.9 mL/min
same,RVR,"WKY, 2 weeks",14.2 ± 1.4 mm Hg/ml/min
same,UNaV,"WKY, 2 weeks",2.4 ± 0.6 mmol/24 hr
same,UV,"WKY, 2 weeks",16.7 ± 2.3 ml/24 hr
same,Heart rate,"WKY, two weeks",373±8 bts/min
same,MAP,"WKY, two weeks",118±7 mm Hg
